pIC50: −log10 of the molar value. Converted amounts (≈) assume the structure as drawn. Read-outs that look alike come from different tables or passages of the source.
Experiments:
[1] = tested on: UO-31; assay: SRB cytotoxicity screening assay (Renal Cancer)
[2] = tested on: MALME-3M; assay: SRB cytotoxicity screening assay (Melanoma)
[3] = tested on: 786-0; assay: SRB cytotoxicity screening assay (Renal Cancer)
[4] = tested on: M14; assay: SRB cytotoxicity screening assay (Melanoma)
[5] = tested on: LOX-IMVI; assay: cells; details: Homo sapiens, 48 h, read-out: Log10 LC50 (converted)
[6] = tested on: SK-MEL-28; assay: SRB cytotoxicity screening assay (Melanoma)
[7] = tested on: U251; assay: SRB cytotoxicity screening assay (CNS Cancer)
[8] = tested on: NCI-H322M; assay: cells; details: Homo sapiens, 48 h, read-out: Log10 GI50 (converted)
[9] = tested on: MOLT-4; assay: SRB cytotoxicity screening assay (Leukemia)
[10] = tested on: HOP-62; assay: SRB cytotoxicity screening assay (Non-Small Cell Lung Cancer)
[11] = tested on: SW-620; assay: SRB cytotoxicity screening assay (Colon Cancer)
[12] = tested on: HT29; assay: SRB cytotoxicity screening assay (Colon Cancer)
[13] = tested on: K-562; assay: SRB cytotoxicity screening assay (Leukemia)
[14] = tested on: SR; assay: SRB cytotoxicity screening assay (Leukemia); details: Homo sapiens, SR, 48 h
[15] = tested on: EKVX; assay: SRB cytotoxicity screening assay (Non-Small Cell Lung Cancer)
[16] = tested on: NCI-H226; assay: as above
[17] = tested on: MCF7; assay: SRB cytotoxicity screening assay (Breast Cancer)
[18] = tested on: RPMI-8226; assay: SRB cytotoxicity screening assay (Leukemia); details: Homo sapiens, RPMI-8226, 48 h
[19] = tested on: MDA-MB-231/ATCC; assay: SRB cytotoxicity screening assay (Breast Cancer)
[20] = tested on: OVCAR-3; assay: SRB cytotoxicity screening assay (Ovarian)
[21] = tested on: LOX-IMVI; details: LOX-IMVI (Melanoma); PG=0; 48 hour incubation
[22] = tested on: SN12C; assay: SRB cytotoxicity screening assay (Renal Cancer)
[23] = tested on: CCRF-CEM; assay: SRB cytotoxicity screening assay (Leukemia); details: for Log10 TGI: PG=0
[24] = tested on: 26 cell lines; assay: 26 cell line growth inhibition screen, sulforhodamine stain; assay type: cell-based; details: 48 h
[25] = tested on: SNB-19; assay: SRB cytotoxicity screening assay (CNS Cancer)
[26] = read-out: Log10 GI50 (converted)
[27] = read-out: Log10 LC50 (converted)

CCCCCC(=O)O[C@H]1C[C@H]2OC[C@@]2(OC(C)=O)[C@H]2[C@H](OC(=O)c3ccccc3)[C@]3(O)C[C@H](OC(=O)[C@H](O)[C@@H](NC(=O)c4ccccc4)c4ccccc4)C(C)=C([C@@H](OC(C)=O)C(=O)[C@]12C)C3(C)C [7-hexanoyltaxol]
GI50 ([1]; Homo sapiens, UO-31, 48 h, read-out: Log10 GI50 (converted)): 0.0646 µM | CC50 ([1]; Homo sapiens, UO-31, 48 h, read-out: Log10 LC50 (converted)): > 100 µM | Log10 TGI ([1]; UO-31 (Renal Cancer), PG=0, 48 hour incubation): >−4.00 molar | GI50 ([2]; Homo sapiens, Malme-3M, 48 h, read-out: Log10 GI50 (converted)): < 0.01 µM | CC50 ([2]; Homo sapiens, Malme-3M, 48 h, read-out: Log10 LC50 (converted)): 81.3 µM | Log10 TGI ([2]; MALME-3M (Melanoma), PG=0, 48 hour incubation): −4.65 molar | Log10 TGI ([3]; 786-0 (Renal Cancer), PG=0, 48 hour incubation): −4.88 molar | GI50 ([3]; Homo sapiens, 786-0, 48 h, read-out: Log10 GI50 (converted)): < 0.01 µM | CC50 ([3]; Homo sapiens, 786-0, 48 h, read-out: Log10 LC50 (converted)): 36.3 µM | GI50 ([4]; Homo sapiens, M14, 48 h, read-out: Log10 GI50 (converted)): < 0.01 µM | CC50 ([4]; Homo sapiens, M14, 48 h, read-out: Log10 LC50 (converted)): 1.58 µM | Log10 TGI ([4]; M14 (Melanoma), PG=0, 48 hour incubation): −7.94 molar | CC50 [5]: 57.5 µM | GI50 ([6]; Homo sapiens, SK-MEL-28, 48 h, read-out: Log10 GI50 (converted)): < 0.01 µM | CC50 ([6]; Homo sapiens, SK-MEL-28, 48 h, read-out: Log10 LC50 (converted)): > 100 µM | Log10 TGI ([6]; SK-MEL-28 (Melanoma), PG=0, 48 hour incubation): −4.33 molar | GI50 ([7]; Homo sapiens, U-251, 48 h, read-out: Log10 GI50 (converted)): < 0.01 µM | CC50 ([7]; Homo sapiens, U-251, 48 h, read-out: Log10 LC50 (converted)): 32.4 µM | Log10 TGI ([7]; U251 (CNS Cancer), PG=0, 48 hour incubation): −4.98 molar | GI50 [8]: 0.02 µM | GI50 ([9]; Homo sapiens, MOLT-4, 48 h, read-out: Log10 GI50 (converted)): < 0.01 µM | CC50 ([9]; Homo sapiens, MOLT-4, 48 h, read-out: Log10 LC50 (converted)): > 100 µM | Log10 TGI ([9]; MOLT-4 (Leukemia), PG=0, 48 hour incubation): −4.69 molar | Log10 TGI ([10]; HOP-62 (Non-Small Cell Lung Cancer), PG=0, 48 hour incubation): −6.52 molar | GI50 ([10]; Homo sapiens, HOP-62, 48 h, read-out: Log10 GI50 (converted)): 0.0141 µM | CC50 ([10]; Homo sapiens, HOP-62, 48 h, read-out: Log10 LC50 (converted)): 89.1 µM | GI50 ([11]; Homo sapiens, SW-620, 48 h, read-out: Log10 GI50 (converted)): < 0.01 µM | CC50 ([11]; Homo sapiens, SW-620, 48 h, read-out: Log10 LC50 (converted)): > 100 µM | Log10 TGI ([11]; SW-620 (Colon Cancer), PG=0, 48 hour incubation): >−4.00 molar | Log10 TGI ([12]; HT29 (Colon Cancer), PG=0, 48 hour incubation): −4.95 molar | GI50 ([12]; Homo sapiens, HT-29, 48 h, read-out: Log10 GI50 (converted)): < 0.01 µM | CC50 ([12]; Homo sapiens, HT-29, 48 h, read-out: Log10 LC50 (converted)): 33.1 µM | GI50 ([13]; Homo sapiens, K562, 48 h, read-out: Log10 GI50 (converted)): < 0.01 µM | CC50 ([13]; Homo sapiens, K562, 48 h, read-out: Log10 LC50 (converted)): > 100 µM | Log10 TGI ([13]; K-562 (Leukemia), PG=0, 48 hour incubation): −7.05 molar | GI50 [14, 26]: < 0.01 µM | CC50 [14, 27]: > 100 µM | Log10 TGI ([15]; EKVX (Non-Small Cell Lung Cancer), PG=0, 48 hour incubation): −4.29 molar | GI50 ([15]; Homo sapiens, EKVX, 48 h, read-out: Log10 GI50 (converted)): 0.398 µM | CC50 ([15]; Homo sapiens, EKVX, 48 h, read-out: Log10 LC50 (converted)): > 100 µM | GI50 ([16]; Homo sapiens, NCI-H226, 48 h, read-out: Log10 GI50 (converted)): < 0.01 µM | CC50 ([16]; Homo sapiens, NCI-H226, 48 h, read-out: Log10 LC50 (converted)): > 100 µM | Log10 TGI ([16]; NCI-H226 (Non-Small Cell Lung Cancer), PG=0, 48 hour incubation): −4.76 molar | GI50 ([17]; Homo sapiens, MCF7, 48 h, read-out: Log10 GI50 (converted)): < 0.01 µM | CC50 ([17]; Homo sapiens, MCF7, 48 h, read-out: Log10 LC50 (converted)): > 100 µM | Log10 TGI ([17]; MCF7 (Breast Cancer), PG=0, 48 hour incubation): −4.73 molar | GI50 [18, 26]: < 0.01 µM | CC50 [18, 27]: > 100 µM | GI50 ([19]; Homo sapiens, MDA-MB-231, 48 h, read-out: Log10 GI50 (converted)): 0.0282 µM | CC50 ([19]; Homo sapiens, MDA-MB-231, 48 h, read-out: Log10 LC50 (converted)): 23.4 µM | Log10 TGI ([19]; MDA-MB-231/ATCC (Breast Cancer), PG=0, 48 hour incubation): −6.13 molar | GI50 ([20]; Homo sapiens, OVCAR-3, 48 h, read-out: Log10 GI50 (converted)): < 0.01 µM | CC50 ([20]; Homo sapiens, OVCAR-3, 48 h, read-out: Log10 LC50 (converted)): 20.9 µM | Log10 TGI ([20]; OVCAR-3 (Ovarian), PG=0, 48 hour incubation): −7.65 molar | Log10 TGI [21]: −4.68 molar | GI50 ([22]; Homo sapiens, SN12C, 48 h, read-out: Log10 GI50 (converted)): < 0.01 µM | CC50 ([22]; Homo sapiens, SN12C, 48 h, read-out: Log10 LC50 (converted)): > 100 µM | Log10 TGI ([22]; SN12C (Renal Cancer), PG=0, 48 hour incubation): >−4.00 molar | Log10 TGI ([23]; CCRF-CEM (Leukemia), 48 hour incubation): −6.1 molar | Log10 TGI ([23]; CCRF-CEM (Leukemia), 48 hour incubation, listed as 7-Hexanoyltaxol): <−8.00 molar | Log10 LC50 ([23]; CCRF-CEM (Leukemia), PG=−50, 48 hour incubation): >−4.00 molar | GI50 ([23]; Homo sapiens, CCRF-CEM, 48 h, read-out: Log10 GI50 (converted)): < 0.01 µM | CC50 ([23]; Homo sapiens, CCRF-CEM, 48 h, read-out: Log10 LC50 (converted)): > 100 µM | pIC50 ([23]; Homo sapiens, CCRF-CEM, read-out: concentration necessary to achieve primary growth inhibition (percentage growth +50)): ~7.00 | IC50 ([24]; read-out: Mean IC50 (26 cell line Mean Growth inhibition IC50 value)): 8 ng/mL (≈ 8.4 nM) | IC50 ([24]; read-out: Min IC50 (lowest observed IC50 value in 26 cell line screen)): 1 ng/mL (≈ 1.05 nM) | GI50 ([25]; Homo sapiens, SNB-19, 48 h, read-out: Log10 GI50 (converted)): 0.0102 µM | CC50 ([25]; Homo sapiens, SNB-19, 48 h, read-out: Log10 LC50 (converted)): > 100 µM | Log10 TGI ([25]; SNB-19 (CNS Cancer), PG=0, 48 hour incubation): −4.53 molar
